The values that follow come from publication PMC10296061, “Inhibition of the Mitochondrial Carnitine/Acylcarnitine Carrier by Itaconate through Irreversible Binding to Cysteine 136: Possible Pathophysiological Implications” (Biomolecules, 2023).

The structures appear in SMILES notation.

In test [1] the target is T1, CAC C136A mutant (Rattus norvegicus, UniProt P97521, C136A).
T1 construct: made in house; host or cells: E. coli C0214
T1 sequence (P97521 1-301 C136A): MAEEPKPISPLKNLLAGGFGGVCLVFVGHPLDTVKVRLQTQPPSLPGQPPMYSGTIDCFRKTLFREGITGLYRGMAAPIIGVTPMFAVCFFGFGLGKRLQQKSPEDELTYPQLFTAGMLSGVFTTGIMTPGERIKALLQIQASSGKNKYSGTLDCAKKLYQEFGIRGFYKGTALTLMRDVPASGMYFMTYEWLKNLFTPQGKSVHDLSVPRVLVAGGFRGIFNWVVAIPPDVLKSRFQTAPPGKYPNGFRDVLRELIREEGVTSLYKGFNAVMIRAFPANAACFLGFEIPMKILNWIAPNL
In words: Transport assay in proteoliposomes, CAC mutant C136A. Type of test: biochemical. The following applies: mutant lacking C136; read-out: IC50 for itaconate inhibition. On the procedure: As previously described, the pMW7-WTratCAC recombinant plasmid was used for over-expressing the rat CAC [22]. The overlap extension method was used to introduce the mutations; in the main time, NdeI and HindIII restriction sites were also added using appropriate primers. The PCR products were purified by the QIAEX II Gel Extraction Kit (QIAGEN) and digested with NdeI and HindIII and then ligated into the pMW7. All mutations were verified by DNA sequencing. The resulting plasmid constructs were transformed into E. coli C0214. Overexpression, inclusion body fraction preparation, and purification of the CAC proteins were performed as previously described. […]
(§1) To test the transport activity of the CAC, 550 μL of proteoliposomes was passed through a Sephadex G-75 column to remove the external substrate. […] Transport rates were measured in 10 min, i.e., within the initial linear range of the time course, at 25 °C. After terminating the transport reaction, the external substrate was removed by chromatography on the Sephadex G-75 column, and the intraliposomal radioactivity was measured. […]
Figure 3 Identification of residue responsible for itaconate inhibition. […] Transport activity of the WT (○), C136A (●), C155A (Δ), C23V/C58V/C89S/C155V/C283S (▲), and C23V/C58V/C89S/C136V/C155V/C283S (□) was measured by adding 0.1 mM [^3H]carnitine after treatment by itaconate at the indicated concentrations. […]

In test [2] the target is T2, recombinant ORC (hORC1) (Homo sapiens, UniProt Q9Y619).
T2 construct: encodes a full-length hORC1 protein with a His6 tag before the termination codon; His6 (C); made in house; host or cells: E. coli C0214
T2 sequence (Q9Y619 1-301): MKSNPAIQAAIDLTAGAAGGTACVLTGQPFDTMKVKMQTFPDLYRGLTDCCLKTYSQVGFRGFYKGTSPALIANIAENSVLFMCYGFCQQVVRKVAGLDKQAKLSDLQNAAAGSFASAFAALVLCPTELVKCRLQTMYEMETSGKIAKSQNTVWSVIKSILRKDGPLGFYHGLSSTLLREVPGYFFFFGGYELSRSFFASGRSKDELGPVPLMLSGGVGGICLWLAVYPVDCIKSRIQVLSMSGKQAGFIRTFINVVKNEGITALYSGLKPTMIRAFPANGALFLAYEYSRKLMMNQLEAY
In words: [3H]ornithine transport in proteoliposomes reconstituted with recombinant ORC. Type of test: biochemical. The conditions noted are these: read-out: IC50 for itaconate inhibition.
From the text: The 903 bp cDNA coding for the hORC1Wild Type (WT) protein was amplified from the Mega Man Human Transcriptome Library with the forward and reverse primers 5′-[…]-3′ and 5′-[…]-3′, containing the NdeI and HindIII sites, respectively. The amplified cDNA was then cloned in the NdeI/HindIII sites of the pET-21a(+) expression vector. The resulting recombinant plasmid, defined as pET-21a(+)-hORC1, encodes a full-length hORC1 protein with a His6 tag before the termination codon. […]
as §1
Figure 3 Identification of residue responsible for itaconate inhibition. […] Transport activity of the WT (○), C136A (●), C155A (Δ), C23V/C58V/C89S/C155V/C283S (▲), and C23V/C58V/C89S/C136V/C155V/C283S (□) was measured by adding 0.1 mM [^3H]carnitine after treatment by itaconate at the indicated concentrations. […] Transport activity was measured by adding 0.1 [^3H]ornithine, respectively, as described in Materials and Methods. […]

As for `C=C(CC(=O)O)C(=O)O` [itaconate], the IC50 in test [1] stood at 15 ± 2.1 mM; in test [2], 44 ± 6 mM.
